Usually IC50 stands for the concentration needed to halve the response being measured.

This passage reports IC50 results from patent US9956220B2, “Imidazo-pyridazine derivatives as casein kinase 1 δ/ϵ inhibitors” (Bristol-Myers Squibb Company, priority 2014, dated 2018).

One assay concerns the target CK1ϵ (Homo sapiens, UniProt P49674). The assay is described as follows: CK1ϵ kinase assay (Caliper LABCHIP electrophoretic separation of fluoresceinated peptide substrate and product). Particulars: 200 pM CK1ϵ, 50 μM ATP, 1.5 μM peptide substrate, 22 hours at room temperature; read-out: CK1ε (IC50). The class given is biochemical. The method, then:
(§1) CK1ϵ and CK1δ Kinase Assays
(§2) The kinase assay was performed in V-bottom 384-well plates.
(§3) The reaction was incubated at room temperature for 22 hours and terminated by adding 45 μl of 35 mM EDTA to each sample. The reaction mixture was analyzed on the Caliper LABCHIP®3000 (Caliper, Hopkinton, Mass.) by electrophoretic separation of the unphosphorylated substrate and phosphorylated product. […] Compounds were dissolved at 10 mM in dimethylsulfoxide (DMSO) and evaluated at eleven concentrations. IC50 values were derived by non-linear regression analysis.

Another assay has as its target CK1δ (Homo sapiens, UniProt P48730). The assay is described as follows: CK1δ kinase assay (Caliper LABCHIP electrophoretic separation of fluoresceinated peptide substrate and product). Particulars: 200 pM CK1δ, 50 μM ATP, 1.5 μM peptide substrate, 22 hours at room temperature. Type of assay: biochemical. How it is done: as §1, §2, §3

Chain of CK1δ (P48730 whole entry): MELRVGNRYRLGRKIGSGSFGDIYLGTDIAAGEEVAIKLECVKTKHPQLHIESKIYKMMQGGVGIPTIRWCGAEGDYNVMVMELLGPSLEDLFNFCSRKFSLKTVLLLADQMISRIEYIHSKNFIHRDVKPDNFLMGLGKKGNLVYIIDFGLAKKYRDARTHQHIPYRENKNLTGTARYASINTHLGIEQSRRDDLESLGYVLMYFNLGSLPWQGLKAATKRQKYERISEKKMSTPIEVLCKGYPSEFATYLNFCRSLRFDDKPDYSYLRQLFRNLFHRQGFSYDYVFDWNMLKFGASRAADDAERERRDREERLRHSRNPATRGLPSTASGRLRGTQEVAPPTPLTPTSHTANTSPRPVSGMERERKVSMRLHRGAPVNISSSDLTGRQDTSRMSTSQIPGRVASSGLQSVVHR
Chain of CK1ϵ (P49674 whole entry): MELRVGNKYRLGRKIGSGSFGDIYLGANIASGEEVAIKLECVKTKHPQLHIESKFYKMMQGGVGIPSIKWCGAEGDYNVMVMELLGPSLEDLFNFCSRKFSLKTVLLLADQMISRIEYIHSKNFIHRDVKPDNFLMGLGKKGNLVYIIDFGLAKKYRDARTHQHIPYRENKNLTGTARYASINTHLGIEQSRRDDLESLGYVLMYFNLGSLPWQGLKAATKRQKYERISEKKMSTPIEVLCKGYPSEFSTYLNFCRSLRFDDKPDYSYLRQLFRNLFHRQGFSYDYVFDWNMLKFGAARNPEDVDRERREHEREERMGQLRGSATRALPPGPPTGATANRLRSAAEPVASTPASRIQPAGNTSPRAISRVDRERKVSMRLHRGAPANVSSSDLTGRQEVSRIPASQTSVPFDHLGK

With `O=C(Nc1cn2nc(-c3c(-c4ccc(F)cc4)nn4c3CN(C(=O)NC3(C(F)(F)F)CC3)CC4)ccc2n1)c1ccnc(F)c1` [Example 51, 3-(2-(2-Fluoroisonicotinamido)imidazo[1,2-b]pyridazin-6-yl)-2-(4-fluorophenyl)-N-(1-(trifluoromethyl)cyclopropyl)-6,7-dihydropyrazolo[1,5-a] pyrazine-5(4H)-carboxamide], the 50% inhibitory concentration (IC50) on CK1ϵ turned out to be 12.3 nM; on CK1δ, 1.5 nM.
On the same counts, the results for `CC1(NC(=O)N2CCn3nc(-c4ccc(F)cc4)c(-c4ccc5nc(NC(=O)c6ccnc(F)c6)cn5n4)c3C2)CC1` [Example 52, 3-(2-(2-Fluoroisonicotinamido)imidazo[1,2-b]pyridazin-6-yl)-2-(4-fluorophenyl)-N-(1-methylcyclopropyl)-6,7-dihydropyrazolo[1,5-a] pyrazine-5(4H)-carboxamide] are 7.7 nM and 0.9 nM.
On the same counts, the results for `O=C(Nc1cn2nc(-c3c(-c4ccc(F)cc4)nn4c3COCC4)ccc2n1)c1ccnc(F)c1` [Example 53, 2-Fluoro-N-(6-(2-(4-fluorophenyl)-6,7-dihydro-4H-pyrazolo[5,1-c][1,4]oxazin-3-yl)imidazo[1,2-b]pyridazin-2-yl)isonicotinamide] are 4.1 nM and 0.4 nM.
On the same counts, the results for `O=C(Nc1cn2nc(-c3c(-c4ccc(F)cc4)nn4c3COCC4)ccc2n1)c1ccncc1` [Example 54, N-(6-(2-(4-Fluorophenyl)-6,7-dihydro-4H-pyrazolo[5,1-c][1,4]oxazin-3-yl)imidazo[1,2-b]pyridazin-2-yl)isonicotinamide] are 2.6 nM and 0.3 nM.
Turning to `O=C(Nc1cn2nc(-c3c(-c4ccc(F)cc4)nn4c3COCC4)ccc2n1)c1ccnc(N2CCOCC2)c1` [Example 55, N-(6-(2-(4-Fluorophenyl)-6,7-dihydro-4H-pyrazolo[5,1-c][1,4]oxazin-3-yl)imidazo[1,2-b]pyridazin-2-yl)-2-morpholinoisonicotinamide], the IC50 was found to be 2.4 nM on CK1ϵ and 0.3 nM at CK1δ.
On to `O=C(Nc1cn2nc(-c3c(-c4ccc(F)cc4)nn4c3COCC4)ccc2n1)c1cc(F)nc(F)c1` [Example 56, 2,6-Difluoro-N-(6-(2-(4-fluorophenyl)-6,7-dihydro-4H-pyrazolo[5,1-c][1,4]oxazin-3-yl)imidazo[1,2-b]pyridazin-2-yl) isonicotinamide], for which the IC50 worked out at 4 nM at CK1ϵ and 0.3 nM at CK1δ.
On the same counts, the results for `O=C(Nc1cn2nc(-c3c(-c4ccc(F)cc4)nn4c3COCC4)ccc2n1)c1ccnc(-c2cccnc2)c1` [Example 57, N-(6-(2-(4-Fluorophenyl)-6,7-dihydro-4H-pyrazolo[5,1-c][1,4]oxazin-3-yl)imidazo[1,2-b]pyridazin-2-yl)-[2,3′-bipyridine]-4-carboxamide] are 1.7 nM and 0.2 nM.
For `Nc1cc(C(=O)Nc2cn3nc(-c4c(-c5ccc(F)cc5)nn5c4COCC5)ccc3n2)ccn1` [Example 58, 2-Amino-N-(6-(2-(4-fluorophenyl)-6,7-dihydro-4H-pyrazolo[5,1-c][1,4]oxazin-3-yl)imidazo[1,2-b]pyridazin-2-yl) isonicotinamide], the IC50 at CK1ϵ turned out to be 2.7 nM; against CK1δ it was 0.2 nM.
`O=C(Nc1cn2nc(-c3c(-c4ccc(F)cc4)nn4ccccc34)ccc2n1)c1cc(F)nc(F)c1` [Example 61, 2,6-Difluoro-N-(6-(2-(4-fluorophenyl)pyrazolo[1,5-a]pyridin-3-yl)imidazo[1,2-b]pyridazin-2-yl)isonicotinamide]: the IC50 at CK1ϵ stood at 137 nM; against CK1δ, 19.5 nM.
On the same counts, the results for `O=C(Nc1cn2nc(-c3c(-c4ccc(F)cc4)nn4c3CCCC4)ccc2n1)c1ccnc(F)c1` [Example 62, 2-Fluoro-N-(6-(2-(4-fluorophenyl)-4,5,6,7-tetrahydropyrazolo[1,5-a]pyridin-3-yl)imidazo[1,2-b]pyridazin-2-yl)isonicotinamide] are 1.3 nM and 0.4 nM.
`O=C(Nc1cn2nc(-c3c(-c4ccc(F)cc4)nn4c3CCCC4)ccc2n1)c1ccncc1` [Example 63, N-(6-(2-(4-Fluorophenyl)-4,5,6,7-tetrahydropyrazolo[1,5-a]pyridin-3-yl)imidazo[1,2-b]pyridazin-2-yl) isonicotinamide]: the half-inhibitory concentration (IC50) at CK1ϵ was found to be 1.2 nM; against CK1δ it was 0.3 nM.
With `O=C(Nc1cn2nc(-c3c(-c4ccc(F)cc4)nn4c3CCCC4)ccc2n1)c1cc(F)nc(F)c1` [Example 64, 2,6-Difluoro-N-(6-(2-(4-fluorophenyl)-4,5,6,7-tetrahydropyrazolo[1,5-a]pyridin-3-yl)imidazo[1,2-b]pyridazin-2-yl) isonicotinamide], the IC50 was determined as 3.9 nM at CK1ϵ and 0.5 nM against CK1δ.
On the same counts, the results for `O=C(Nc1cn2nc(-c3c(-c4ccc(F)cc4)nn4c3CCC4)ccc2n1)c1ccnc(F)c1` [Example 65, 2-Fluoro-N-(6-(2-(4-fluorophenyl)-5,6-dihydro-4H-pyrrolo[1,2-b]pyrazol-3-yl)imidazo[1,2-b]pyridazin-2-yl)isonicotinamide] are 4.7 nM and 0.4 nM.
With `O=C(Nc1cn2nc(-c3c(-c4ccc(F)cc4)nn4c3CCC4)ccc2n1)c1cc(F)nc(F)c1` [Example 66, 2,6-Difluoro-N-(6-(2-(4-fluorophenyl)-5,6-dihydro-4H-pyrrolo[1,2-b]pyrazol-3-yl)imidazo[1,2-b]pyridazin-2-yl)isonicotinamide], the IC50 at CK1ϵ worked out at 5.3 nM; against CK1δ, 0.7 nM.
As for `O=C(Nc1cn2nc(-c3c(-c4ccc(F)cc4)nn4c3CCC4)ccc2n1)c1ccncc1` [Example 67, N-(6-(2-(4-Fluorophenyl)-5,6-dihydro-4H-pyrrolo[1,2-b]pyrazol-3-yl)imidazo[1,2-b]pyridazin-2-yl) isonicotinamide], the concentration for half-maximal inhibition (IC50) at CK1ϵ turned out to be 3.6 nM; on CK1δ it was 0.4 nM.
In the case of `O=C(Nc1cn2nc(-c3c(-c4ccc(F)cc4)nn4c3CCC4)ccc2n1)c1ccccc1` [Example 68, N-(6-(2-(4-Fluorophenyl)-5,6-dihydro-4H-pyrrolo[1,2-b]pyrazol-3-yl)imidazo[1,2-b]pyridazin-2-yl)benzamide], the IC50 at CK1ϵ amounted to 3.6 nM; against CK1δ, 0.3 nM.
As for `O=C(Nc1cn2nc(-c3c(-c4ccc(F)cc4)noc3C3CCOCC3)ccc2n1)c1ccnc(F)c1` [Example 69, 2-Fluoro-N-(6-(3-(4-fluorophenyl)-5-(tetrahydro-2H-pyran-4-yl)isoxazol-4-yl)imidazo[1,2-b]pyridazin-2-yl)isonicotinamide], the concentration for half-maximal inhibition (IC50) was 27.9 nM on CK1ϵ and 1.4 nM on CK1δ.
For `O=C(Nc1cn2nc(-c3c(-c4ccc(F)cc4)noc3C3CCOCC3)ccc2n1)c1ccnc(N2CCOCC2)c1` [Example 70, N-(6-(3-(4-Fluorophenyl)-5-(tetrahydro-2H-pyran-4-yl)isoxazol-4-yl)imidazo[1,2-b]pyridazin-2-yl)-2-morpholinoisonicotinamide], the IC50 came to 27.3 nM at CK1ϵ and 3.8 nM against CK1δ.
On the same counts, the results for `O=C(Nc1cn2nc(-c3c(-c4ccc(F)cc4)noc3C3CCOCC3)ccc2n1)c1ccnc(-c2cccnc2)c1` [Example 71, N-(6-(3-(4-Fluorophenyl)-5-(tetrahydro-2H-pyran-4-yl)isoxazol-4-yl)imidazo[1,2-b]pyridazin-2-yl)-[2,3′-bipyridine]-4-carboxamide] are 29 nM and 2.5 nM.
